This passage reports AUC, Activity and MIC results from ChEMBL document CHEMBL1629699, “Cell wall thickening is not a universal accompaniment of the daptomycin nonsusceptibility phenotype in Staphylococcus aureus: evidence for multiple resistance mechanisms” (Antimicrob Agents Chemother, 2010).

≈ marks a conversion by molar mass, not a printed value.

The test system of series [1] is Staphylococcus aureus. Nature of the series: AUC in methicillin-resistant sStaphylococcus aureus 11/11. Particulars: in vitro population analysis.
Series [2] deals with Cell membrane. As to the kind of experiment: Binding affinity to daptomycin-resistant Staphylococcus aureus REF2145 cell membrane assessed as amount of compound bound at 8 ug after 10 mins.
Series [3] relates to Cell membrane. As to the kind of experiment: Binding affinity to methicillin-susceptible Staphylococcus aureus 11/11 cell membrane assessed as amount of compound bound at 8 ug after 10 mins.
For series [4], the system named is Staphylococcus aureus. Nature of the series: Antimicrobial activity against Staphylococcus aureus CB5053 by Etest.
Series [5] relates to Staphylococcus aureus. Nature of the series: Antimicrobial activity against Staphylococcus aureus CB184 after 24 hrs by Etest. Particulars: CB184, 24 h.
Series [6] deals with Staphylococcus aureus. Nature of the series: Antimicrobial activity against Staphylococcus aureus BMC1001 by Etest.
The test system of series [7] is Staphylococcus aureus. As to the kind of experiment: Antimicrobial activity against Staphylococcus aureus CB1482 after 24 hrs by plate reader analysis. The following applies: CB1482, 24 h.
Series [8] deals with Staphylococcus aureus. Nature of the series: Antimicrobial activity against Staphylococcus aureus CB5035 by Etest. Type of series: functional.
Series [9] concerns Staphylococcus aureus. Nature of the series: Antimicrobial activity against Staphylococcus aureus BMC1002 by Etest. Type of series: functional.
Series [10] concerns Staphylococcus aureus. As to the kind of experiment: Antimicrobial activity against Staphylococcus aureus CB5054 by Etest. Type of series: functional.
The subject of series [11] is Cell membrane. Nature of the series: Binding affinity to daptomycin-resistant Staphylococcus aureus REF2145 cell membrane assessed as amount of compound bound at 6 ug after 10 mins.
Series [12] concerns Staphylococcus aureus. Nature of the series: Antimicrobial activity against Staphylococcus aureus CB5036 by Etest. Type of series: functional.
Series [13] has as its system Cell membrane. Nature of the series: Binding affinity to methicillin-susceptible Staphylococcus aureus 11/11 cell membrane assessed as amount of compound bound at 6 ug after 10 mins.

Usually MIC stands for the smallest concentration in the dilution series that meets the test's criterion for growth inhibition.

`CN[C@H](CC(C)C)C(=O)N[C@H]1C(=O)N[C@@H](CC(N)=O)C(=O)N[C@H]2C(=O)N[C@H]3C(=O)N[C@H](C(=O)N[C@H](C(=O)O)c4cc(O)cc(O)c4-c4cc3ccc4O)[C@H](O)c3ccc(c(Cl)c3)Oc3cc2cc(c3O[C@@H]2O[C@H](CO)[C@@H](O)[C@H](O)[C@H]2O[C@H]2C[C@](C)(N)[C@H](O)[C@H](C)O2)Oc2ccc(cc2Cl)[C@H]1O` [VANCOMYCIN] came in with an AUC in [1] of 5.96 µg/mL. Also, the Activity was 1.78 µg/mL in series [2] and 1.81 µg/mL in series [3].
`CCCCCCCCCC(=O)N[C@@H](Cc1c[nH]c2ccccc12)C(=O)N[C@H](CC(N)=O)C(=O)N[C@@H](CC(=O)O)C(=O)N[C@@H]1C(=O)NCC(=O)N[C@@H](CCCN)C(=O)N[C@@H](CC(=O)O)C(=O)N[C@H](C)C(=O)N[C@@H](CC(=O)O)C(=O)NCC(=O)N[C@H](CO)C(=O)N[C@@H]([C@H](C)CC(=O)O)C(=O)N[C@@H](CC(=O)c2ccccc2N)C(=O)O[C@@H]1C` gave an AUC in [1] of 8.41 µg/mL. Also, the MIC turned out to be 0.5 µg/mL (≈ 0.309 µM) in series [4]; 4 µg/mL (≈ 2.47 µM) in [5]; 0.5 µg/mL (≈ 0.309 µM) in series [6]; 0.5 µg/mL (≈ 0.309 µM) in series [7]; 0.38 µg/mL (≈ 0.234 µM) in series [8]; 2 µg/mL (≈ 1.23 µM) in series [9]. The MIC in series [10] and in [12] was 2 µg/mL (≈ 1.23 µM) each time. Besides, the Activity in series [11] is 0.79 µg/mL; in series [13], 2.03 µg/mL.
